Measurements published in publication PMC8320612 (Current Research in Toxicology, 2021).

Experiments:
[1] = target: T1, thyroid peroxidase (TPO), rat thyroid microsomes (Rattus norvegicus, UniProt P14650); experiment: TPO activity assay, MIT to DIT monoiodination, LC-MS/MS; type: biochemical; conditions: result in words
T1 sequence (P14650 32-914): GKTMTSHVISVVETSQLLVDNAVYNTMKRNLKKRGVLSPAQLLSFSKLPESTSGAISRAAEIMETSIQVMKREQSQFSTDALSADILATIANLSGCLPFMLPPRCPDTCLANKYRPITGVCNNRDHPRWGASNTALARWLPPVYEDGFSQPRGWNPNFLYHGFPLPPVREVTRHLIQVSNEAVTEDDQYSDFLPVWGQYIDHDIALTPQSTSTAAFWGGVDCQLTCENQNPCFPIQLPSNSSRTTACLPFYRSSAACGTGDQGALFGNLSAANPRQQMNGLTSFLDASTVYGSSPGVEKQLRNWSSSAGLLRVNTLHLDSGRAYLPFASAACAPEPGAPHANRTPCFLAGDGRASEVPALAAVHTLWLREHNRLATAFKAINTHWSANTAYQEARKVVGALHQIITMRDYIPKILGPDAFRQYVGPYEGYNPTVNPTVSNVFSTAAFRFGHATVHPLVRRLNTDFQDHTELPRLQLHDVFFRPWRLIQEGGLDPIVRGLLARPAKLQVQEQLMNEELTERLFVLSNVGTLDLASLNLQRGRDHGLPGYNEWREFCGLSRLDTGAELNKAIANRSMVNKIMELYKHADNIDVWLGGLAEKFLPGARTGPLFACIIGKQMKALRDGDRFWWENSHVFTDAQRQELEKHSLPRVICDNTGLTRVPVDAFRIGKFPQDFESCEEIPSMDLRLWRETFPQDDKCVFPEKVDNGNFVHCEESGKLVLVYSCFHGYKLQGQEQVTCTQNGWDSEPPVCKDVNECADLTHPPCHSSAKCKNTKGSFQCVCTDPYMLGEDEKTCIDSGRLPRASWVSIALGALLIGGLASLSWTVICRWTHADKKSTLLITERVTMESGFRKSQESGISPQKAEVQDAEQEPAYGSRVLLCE

[2] = target: T1, thyroid peroxidase (TPO), rat thyroid microsomes; experiment: Battery of TPO assays, summary of IC50 across reactions; type: biochemical

Structure (SMILES): O=c1c(-c2ccc(O)cc2)coc2cc(O)ccc12 [DZN, Daidzein]
- Effect on MIT to DIT iodination [1]: no adverse effects
- IC50 [2]: 19.7 to 57.3 µM
